Source: ChEMBL document CHEMBL4311946, “Mechanistic Insight on the Mode of Action of Colletoic Acid” (J Med Chem, 2019)
Active and inactive are the calls of the source. The calls are words filed in the database; no cut-off is given here.

Tests used:
[1] = target: 11-beta-hydroxysteroid dehydrogenase 1 (Homo sapiens, UniProt P28845, C272S); assay: Inhibition of N-terminal MKHQHQHQHQHQHQQPL-tagged 11beta-HSD1 C272S mutant (unknown origin) expressed in Escherichia coli BL21 (DE3) using cortisol as substrate measured for 1 hr in presence of NADPH by fluorescence assay
[2] = target: T1, 11-beta-hydroxysteroid dehydrogenase type 2 (Homo sapiens, UniProt P80365); assay: Inhibition of 11beta-HSD2 (unknown origin) expressed in HEK293 cells using cortisone as substrate measured after 2 hrs in presence of NAD+ by HTRF assay; type: ADME, cell-based
T1 sequence (P80365 whole entry): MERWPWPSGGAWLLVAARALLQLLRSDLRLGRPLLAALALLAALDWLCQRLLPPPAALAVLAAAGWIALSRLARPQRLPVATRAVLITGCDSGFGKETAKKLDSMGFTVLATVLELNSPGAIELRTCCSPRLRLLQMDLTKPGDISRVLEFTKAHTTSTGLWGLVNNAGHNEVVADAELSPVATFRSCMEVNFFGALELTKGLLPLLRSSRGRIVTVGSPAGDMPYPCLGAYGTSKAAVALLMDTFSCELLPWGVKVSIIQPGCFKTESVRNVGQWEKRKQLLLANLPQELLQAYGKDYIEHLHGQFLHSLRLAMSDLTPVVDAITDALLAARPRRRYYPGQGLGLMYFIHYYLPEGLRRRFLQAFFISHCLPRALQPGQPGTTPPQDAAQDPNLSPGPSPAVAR

[3] = system: 3T3-L1; assay: Cytotoxicity against mouse 3T3L1 cells measured after 72 hrs by celltiter-glo luminescent cell viability assay; type: ADME, cell-based; details: 3T3-L1, 72 h
[4] = Half life in mouse liver microsomes; type: ADME, Microsome
[5] = Half life in human liver microsomes; type: ADME, Microsome
[6] = Half life in human plasma; type: ADME, cell-free
[7] = Stability in mouse plasma; type: ADME, cell-free
[8] = Half life in simulated gastric fluid; type: ADME
[9] = system: 3T3-L1; assay: Inhibition of cell differentiation in mouse 3T3L1 cells assessed as reduction in pre-adipocyte differentiation into matured adipocytes at 50 uM incubated for 48 hrs under induction medium containing dehydrocorticosterone/cortisone followed by shifting to differentiation medium and measured after 7 days by Oil red O staining-based microscopic analysis; type: functional
[10] = target: T2, Peroxisome proliferator-activated receptor gamma (Homo sapiens, UniProt P37231); assay: Antagonist activity at human PPARgamma expressed in 293H cells assessed as reduction in rosiglitazone-induced transcriptional response preincubated for 30 mins followed by rosiglitazone addition and measured after 16 hrs by reporter gene-based FRET assay; type: cell-based
T2 sequence (P37231 whole entry): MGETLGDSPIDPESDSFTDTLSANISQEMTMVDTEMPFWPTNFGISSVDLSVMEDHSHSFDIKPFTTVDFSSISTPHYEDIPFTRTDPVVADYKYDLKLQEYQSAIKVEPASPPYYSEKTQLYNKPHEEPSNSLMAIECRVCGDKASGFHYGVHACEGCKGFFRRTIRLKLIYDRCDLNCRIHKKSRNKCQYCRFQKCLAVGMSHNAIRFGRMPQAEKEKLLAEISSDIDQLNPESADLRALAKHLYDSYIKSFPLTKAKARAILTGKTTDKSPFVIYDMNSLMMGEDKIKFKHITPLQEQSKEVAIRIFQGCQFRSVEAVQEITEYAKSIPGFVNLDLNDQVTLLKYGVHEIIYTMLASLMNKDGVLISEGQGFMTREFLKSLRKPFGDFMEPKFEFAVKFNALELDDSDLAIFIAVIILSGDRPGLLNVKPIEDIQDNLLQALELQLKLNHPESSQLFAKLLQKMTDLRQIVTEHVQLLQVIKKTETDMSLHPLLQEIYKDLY

Chain of 11-beta-hydroxysteroid dehydrogenase 1 (P28845 whole entry C272S): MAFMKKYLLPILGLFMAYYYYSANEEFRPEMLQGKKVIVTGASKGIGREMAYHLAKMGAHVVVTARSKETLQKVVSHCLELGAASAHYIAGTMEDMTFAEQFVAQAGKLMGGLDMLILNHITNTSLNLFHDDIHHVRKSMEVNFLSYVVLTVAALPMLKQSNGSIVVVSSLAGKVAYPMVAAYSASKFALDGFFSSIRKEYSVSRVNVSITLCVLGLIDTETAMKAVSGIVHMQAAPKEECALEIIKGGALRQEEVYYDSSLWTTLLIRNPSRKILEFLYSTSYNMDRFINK

IC50 [1] [µM] | Ki [1] [µM] | IC50 [2] [µM] | t1/2 [4] [h] | t1/2 [5] [h] | half-life [6] [h] | Stability [7] | half-life [8] [h] | EC50 [10] [µM] | Structure (SMILES) | EC50 [3] [µM] | inhibition [9]
42.4 | 5.15 | > 500 | 2.23 | 6.8 | > 48 | Stable | > 6 | – | CC1=CC[C@@]2(CC1=O)[C@@H](C(=O)O)CC[C@H]2C(C)C | > 500 | –
178 | – | > 500 | – | – | – | – | – | – | CC(=O)O[C@H]1C[C@]2(CC=C1C)[C@@H](C(=O)O)CC[C@H]2C(C)C | > 500 | –
2.2 | – | > 500 | 0.27 | 0.93 | > 48 | Stable | > 6 | – | CC1=CC[C@@]2(C=C1)[C@@H](C(=O)O)CC[C@H]2C1CCCCC1 | > 300 | Active
> 500 | 289 | > 500 | – | – | – | – | – | – | CC(=O)O[C@@H]1C[C@@](C)(O)CC[C@]12[C@@H](C(=O)O)CC[C@H]2C(C)C | > 500 | –
80.3 | – | > 500 | – | – | – | – | – | – | CC1=CC[C@@]2(C[C@H]1O)[C@@H](C(C)C)CC[C@H]2C(=O)O | > 500 | –
> 500 | – | > 500 | – | – | – | – | – | – | CC1=CC[C@@]2(C[C@@H]1O)[C@H](C(=O)O)CC[C@H]2C(C)C | > 500 | –
– | – | – | – | – | – | – | – | – | CC1(C)[C@@H](OC(=O)CCC(=O)O)CC[C@]2(C)[C@H]3C(=O)C=C4[C@@H]5C[C@@](C)(C(=O)O)CC[C@]5(C)CC[C@@]4(C)[C@]3(C)CC[C@@H]12 [CARBENOXOLONE] | > 500 | –
162 | – | > 500 | – | – | – | – | – | – | C=C1CC[C@]2(C[C@@H]1O)[C@H](C)CC[C@@H]2C(=O)O | > 500 | –
– | – | – | – | – | – | – | – | 0.002 | O=C(Nc1ccccc1)c1cc([N+](=O)[O-])ccc1Cl | – | –
38.3 | – | > 500 | – | – | – | – | – | – | C=C1CC[C@@]2(C[C@@H]1O)[C@@H](C(=O)O)CC[C@H]2C(C)C | > 500 | –
27.2 | 4.63 | > 500 | 0.3 | 1.29 | > 48 | Stable | > 6 | – | CC1=CC[C@@]2([C@H](O)C1)[C@@H](C(=O)O)CC[C@H]2C1CCCCC1 | > 500 | –
> 500 | 130 | > 500 | – | – | – | – | – | – | CC(C)[C@@H]1CC[C@H](C(=O)O)[C@]12C[C@@H](O)[C@@](C)(O)[C@@H](O)C2 | > 500 | –
> 500 | 145 | > 500 | – | – | – | – | – | – | C=C1CC[C@@]2(C(OC)[C@@H]1O)[C@@H](C(=O)O)CC[C@H]2C(C)C (stereo not given in full) | > 500 | –
71 | – | > 500 | – | – | – | – | – | – | C=C1CC[C@@]2(C[C@@H]1OC(C)=O)[C@@H](C(=O)O)CC[C@H]2C(C)C | > 500 | –
> 500 | > 500 | > 500 | – | – | – | – | – | – | COC(=O)[C@H]1CC[C@@H](C(C)C)[C@@]12CC=C(C)[C@@H](O)C2 | > 500 | –
1.34 | 0.21 | > 500 | 0.13 | 0.3 | > 48 | Stable | > 6 | – | CC1=CC[C@@]2(C[C@@H]1O)[C@@H](C(=O)O)CC[C@H]2C1CCCCC1 | > 500 | Active
> 500 | > 500 | > 500 | – | – | – | – | – | – | CC1=CC[C@@]2(C[C@@H]1O)[C@@H](C(N)=O)CC[C@H]2C(C)C | > 500 | –
379 | 57.6 | > 500 | – | – | – | – | – | – | C[C@]1(O)CC[C@@]2(C[C@@H]1O)[C@@H](C(=O)O)CC[C@H]2C1CCCCC1 | > 500 | –
55.1 | 8.23 | > 500 | – | – | – | – | – | – | CC1=CC[C@@]2([C@H](O)C1)[C@@H](C(=O)O)CC[C@H]2C(C)C | > 500 | –
